Target: HSD17B13 (Homo sapiens (Human), UniProt Q7Z5P4)
Assay: HSD17B13 enzymatic inhibition assay (150 nM or 50 nM HSD17B13)
Type: biochemical
Conditions: 50 nM HSD17B13; read-out: Inhibition of 50 nM of HSD17B13 IC50

Chain of HSD17B13 (Q7Z5P4 other isoform, or with tags, fused parts or gaps): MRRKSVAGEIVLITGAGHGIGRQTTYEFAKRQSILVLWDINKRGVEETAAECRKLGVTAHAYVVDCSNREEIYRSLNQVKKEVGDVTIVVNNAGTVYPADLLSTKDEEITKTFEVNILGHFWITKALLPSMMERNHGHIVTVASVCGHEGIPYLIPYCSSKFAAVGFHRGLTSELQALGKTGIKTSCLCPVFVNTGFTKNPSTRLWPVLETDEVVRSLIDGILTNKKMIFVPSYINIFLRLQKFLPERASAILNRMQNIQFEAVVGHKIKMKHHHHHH

Going from `O=C(NC(c1ccccc1)c1ccc(N2CCOCC2)cc1)c1ccc(C(F)(F)F)[nH]c1=O` (centres unmarked) [Compound 48, N-((4-morpholinophenyl)(phenyl)methyl)-2-oxo-6-(trifluoromethyl)-1,2-dihydropyridine-3-carboxamide] to `O=C(NC(c1ccccc1)c1ccc(C2CCCCC2)cc1)c1ccc(C(F)(F)F)[nH]c1=O` (centres unmarked) [Compound 39, N-((4-cyclohexylphenyl)(phenyl)methyl)-2-oxo-6-(trifluoromethyl)-1,2-dihydropyridine-3-carboxamide], the IC50 falls from 2.49 µM to 0.49 µM (5.1-fold).

Compared with `O=C(NC1c2ccc(Cl)cc2-c2cc(Cl)ccc21)c1ccc(C(F)(F)F)[nH]c1=O` [Compound 14A, N-(3,6-dichloro-9H-fluoren-9-yl)-2-oxo-6-(trifluoromethyl)-1,2-dihydropyridine-3-carboxamide], `O=C(NC1c2cc(Cl)ccc2Oc2ccc(Cl)cc21)c1ccc(C(F)(F)F)[nH]c1=O` [Compound 153, N-(2,7-dichloro-9H-xanthen-9-yl)-2-oxo-6-(trifluoromethyl)-1,2-dihydropyridine-3-carboxamide] is 2.4-fold lower in IC50: 4.28 µM for the first, 1.79 µM for the second.

Going from `Cc1ccc2c(c1)Oc1cccc(C)c1C2NC(=O)c1cc(C2=CCCCC2)c(C(F)(F)F)[nH]c1=O` (centres unmarked) [Compound 187, 5-(cyclohex-1-en-1-yl)-N-(1,6-dimethyl-9H-xanthen-9-yl)-2-oxo-6-(trifluoromethyl)-1,2-dihydropyridine-3-carboxamide] to `Cc1ccc2c(c1)Oc1cccc(C)c1C2NC(=O)c1cc(-c2ccncc2)c(C(F)(F)F)[nH]c1=O` (centres unmarked) [Compound 503, N-(1,6-dimethyl-9H-xanthen-9-yl)-6-oxo-2-(trifluoromethyl)-1,6-dihydro-[3,4′-bipyridine]-5-carboxamide], the IC50 falls from 0.77 µM to 0.23 µM (3.3-fold).

Going from `Cc1ccc2c(c1)C(NC(=O)c1ccc(C(F)(F)F)[nH]c1=O)c1cc(C)ccc1-2` [Compound 418, N-(2,7-dimethyl-9H-fluoren-9-yl)-2-oxo-6-(trifluoromethyl)-1,2-dihydropyridine-3-carboxamide] to `Cc1ccc2c(c1)C(NC(=O)c1ccc(C(F)(F)F)[nH]c1=O)c1ccccc1S2` (centres unmarked) [Compound 248, N-(2-methyl-9H-thioxanthen-9-yl)-2-oxo-6-(trifluoromethyl)-1,2-dihydropyridine-3-carboxamide], the IC50 rises from 0.07 µM to 0.3 µM (4.3-fold).

Going from `O=C(NC1c2ccccc2Oc2cccc(Cl)c21)c1ccc(C(F)(F)F)[nH]c1=O` (centres unmarked) [Compound 159, N-(1-chloro-9H-xanthen-9-yl)-2-oxo-6-(trifluoromethyl)-1,2-dihydropyridine-3-carboxamide] to `CCc1ccc2c(c1)C(NC(=O)c1ccc(C(F)(F)F)[nH]c1=O)c1ccccc1O2` (centres unmarked) [Compound 160, N-(2-ethyl-9H-xanthen-9-yl)-2-oxo-6-(trifluoromethyl)-1,2-dihydropyridine-3-carboxamide], the IC50 falls from 0.6 µM to 0.18 µM (3.3-fold). The second is the more potent here.

Going from `COc1c(C)ccc2c1CCC2NC(=O)c1ccc(C(F)(F)F)[nH]c1=O` (centres unmarked) [Compound 257, N-(4-methoxy-5-methyl-2,3-dihydro-1H-inden-1-yl)-2-oxo-6-(trifluoromethyl)-1,2-dihydropyridine-3-carboxamide] to `Cc1cccc2c1CCCC2NC(=O)c1ccc(C(F)(F)F)[nH]c1=O` (centres unmarked) [Compound 347], the IC50 rises from 7.13 µM to > 10 µM.

Compared with `Cc1ccc2c(c1)C(NC(=O)c1ccc(C(F)(F)F)[nH]c1=O)C(C)O2` (centres unmarked) [Compound 363, N-(2,5-dimethyl-2,3-dihydrobenzofuran-3-yl)-2-oxo-6-(trifluoromethyl)-1,2-dihydropyridine-3-carboxamide], `Cc1ccc2c(c1)[C@H](NC(=O)c1ccc(C(F)(F)F)[nH]c1=O)C[C@H](C)N2` [Compound 371, N-((2S,4R)-2,6-dimethyl-1,2,3,4-tetrahydroquinolin-4-yl)-2-oxo-6-(trifluoromethyl)-1,2-dihydropyridine-3-carboxamide] is 1.7-fold lower in IC50: 2.47 µM for the first, 1.42 µM for the second. The second is the more potent here.

`O=C(NCc1ccc(Cl)cc1Oc1cccc(Cl)c1)c1ccc(C(F)(F)F)[nH]c1=O` [Compound 216, N-(4-chloro-2-(3-chlorophenoxy)benzyl)-2-oxo-6-(trifluoromethyl)-1,2-dihydropyridine-3-carboxamide] and `O=C(NC(c1ccc(Cl)cc1)c1ccccn1)c1ccc(C(F)(F)F)[nH]c1=O` (centres unmarked) [Compound 67, N-((4-chlorophenyl)(pyridin-2-yl)methyl)-2-oxo-6-(trifluoromethyl)-1,2-dihydropyridine-3-carboxamide] are within 1.5-fold of each other in IC50: 3.19 µM for the first, 2.27 µM for the second.

`CC[C@@H](C[C@@H](NC(=O)c1ccc(C(F)(F)F)[nH]c1=O)c1ccc(C)cc1)OC` [Compound 553, N-((1R,3S)-3-methoxy-1-(p-tolyl)pentyl)-2-oxo-6-(trifluoromethyl)-1,2-dihydropyridine-3-carboxamide] and `CCN1Cc2cc(C)ccc2C(NC(=O)c2ccc(C(F)(F)F)[nH]c2=O)C1=O` (centres unmarked) [Compound 373, N-(2-ethyl-7-methyl-3-oxo-1,2,3,4-tetrahydroisoquinolin-4-yl)-2-oxo-6-(trifluoromethyl)-1,2-dihydropyridine-3-carboxamide] are within 1.5-fold of each other in IC50: 2.08 µM for the first, 1.73 µM for the second.

`Cc1ccc2c(c1)S(=O)(=O)c1cc(C)ccc1C2NC(=O)c1cc(Br)c(C(F)(F)F)[nH]c1=O` [Compound 473, 5-bromo-N-(3,6-dimethyl-10,10-dioxido-9H-thioxanthen-9-yl)-2-oxo-6-(trifluoromethyl)-1,2-dihydropyridine-3-carboxamide] and `Cc1ccc2c(c1)Oc1cc(C)ccc1C2NC(=O)c1cc(-c2ccc(=O)[nH]c2)c(C(F)(F)F)[nH]c1=O` [Compound 497, N-(3,6-dimethyl-9H-xanthen-9-yl)-6,6′-dioxo-2-(trifluoromethyl)-1,1′,6,6′-tetrahydro-[3,3′-bipyridine]-5-carboxamide] are the same in IC50: 0.03 µM for the first, 0.03 µM for the second.

Going from `Nc1ccc(CSc2ncc(C(=O)NC3c4ccc(Cl)cc4Oc4cc(Cl)ccc43)c(=O)[nH]2)cc1C(F)(F)F` [Compound 522, 2-((4-amino-3-(trifluoromethyl)benzyl)thio)-N-(3,6-dichloro-9H-xanthen-9-yl)-6-oxo-1,6-dihydropyrimidine-5-carboxamide] to `O=C(NC1c2ccc(Cl)cc2Oc2cc(Cl)ccc21)c1ccc[nH]c1=O` [Compound 255, N-(3,6-dichloro-9H-xanthen-9-yl)-2-oxo-1,2-dihydropyridine-3-carboxamide], the IC50 rises from 0.61 µM to > 10 µM.

Compared with `O=C(NC(c1ccccc1)C1CCCCC1)c1ccc(C(F)(F)F)[nH]c1=O` (centres unmarked) [Compound 58, N-(cyclohexyl(phenyl)methyl)-2-oxo-6-(trifluoromethyl)-1,2-dihydropyridine-3-carboxamide], `CC1=C(NC(=O)c2ccc(C(F)(F)F)[nH]c2=O)c2ccccc2C1=O` [Compound 343, N-(2-methyl-1-oxo-1H-inden-3-yl)-2-oxo-6-(trifluoromethyl)-1,2-dihydropyridine-3-carboxamide] is 2.2-fold higher in IC50: 2.89 µM for the first, 6.26 µM for the second.

Compared with `Cc1ccc2c(c1)NCCC2NC(=O)c1ccc(C(F)(F)F)[nH]c1=O` (centres unmarked) [Compound 518, N-(7-methyl-1,2,3,4-tetrahydroquinolin-4-yl)-2-oxo-6-(trifluoromethyl)-1,2-dihydropyridine-3-carboxamide], `C=Cc1cccc2c1CCCC2NC(=O)c1ccc(C(F)(F)F)[nH]c1=O` (centres unmarked) [Compound 547, 2-oxo-6-(trifluoromethyl)-N-(5-vinyl-1,2,3,4-tetrahydronaphthalen-1-yl)-1,2-dihydropyridine-3-carboxamide] is 11-fold higher in IC50: 0.56 µM for the first, 6.24 µM for the second.

First: Cc1ccc2c(c1)Sc1cc(C)ccc1C2NC(=O)c1cc(N2CCNCC2)c(C(F)(F)F)[nH]c1=O [Compound 432, N-(3,6-dimethyl-9H-thioxanthen-9-yl)-2-oxo-5-(piperazin-1-yl)-6-(trifluoromethyl)-1,2-dihydropyridine-3-carboxamide]
Second: Cc1ccc2c(c1)Oc1cc(C)ccc1C2NC(=O)c1cc(-c2cccnc2)c(C(F)(F)F)[nH]c1=O [Compound 496, N-(3,6-dimethyl-9H-xanthen-9-yl)-6-oxo-2-(trifluoromethyl)-1,6-dihydro-[3,3′-bipyridine]-5-carboxamide]
The IC50 of the first is 16-fold higher: 0.33 µM for the first, 0.02 µM for the second.

`C=CCc1cccc2c1CCCC2NC(=O)c1ccc(C(F)(F)F)[nH]c1=O` (centres unmarked) [Compound 532, N-(5-allyl-1,2,3,4-tetrahydronaphthalen-1-yl)-2-oxo-6-(trifluoromethyl)-1,2-dihydropyridine-3-carboxamide] and `O=C(NC1CCCc2c(CCO)cccc21)c1ccc(C(F)(F)F)[nH]c1=O` (centres unmarked) [Compound 346, N-(5-(2-hydroxyethyl)-1,2,3,4-tetrahydronaphthalen-1-yl)-2-oxo-6-(trifluoromethyl)-1,2-dihydropyridine-3-carboxamide] are within 1.5-fold of each other in IC50: 5.2 µM for the first, 7.03 µM for the second.

Compared with `Cc1ccc(C(NC(=O)c2cnc(C(F)(F)F)[nH]c2=O)c2ccccc2)cc1C` (centres unmarked) [Compound 18A, N-((3,4-dimethylphenyl)(phenyl)methyl)-6-oxo-2-(trifluoromethyl)-1,6-dihydropyrimidine-5-carboxamide], `CNCc1cc(C(=O)NC2c3ccc(C)cc3Oc3cccc(C)c32)c(=O)[nH]c1C(F)(F)F` (centres unmarked) [Compound 525, N-(1,6-dimethyl-9H-xanthen-9-yl)-5-((methylamino)methyl)-2-oxo-6-(trifluoromethyl)-1,2-dihydropyridine-3-carboxamide] is 2.5-fold higher in IC50: 2.62 µM for the first, 6.51 µM for the second.

First: O=C(NC1c2ccccc2S(=O)(=O)c2ccc(CC(F)(F)F)cc21)c1ccc(C(F)(F)F)[nH]c1=O (centres unmarked) [Compound 472, N-(10,10-dioxido-2-(2,2,2-trifluoroethyl)-9H-thioxanthen-9-yl)-2-oxo-6-(trifluoromethyl)-1,2-dihydropyridine-3-carboxamide]
Second: CN1CC(c2ccc3c(c2)C(NC(=O)c2ccc(C(F)(F)F)[nH]c2=O)c2ccccc2O3)C1 (centres unmarked) [Compound 482, N-(2-(1-methylazetidin-3-yl)-9H-xanthen-9-yl)-2-oxo-6-(trifluoromethyl)-1,2-dihydropyridine-3-carboxamide]
The IC50 of the first is 5-fold lower: 0.48 µM for the first, 2.39 µM for the second.

Same assay, conditions: 150 nM HSD17B13; read-out: Inhibition of 150 nM of HSD17B13 IC50

With `COc1cccc(C(NC(=O)c2ccc(C(F)(F)F)[nH]c2=O)c2ccccc2)c1` (centres unmarked) [Compound 4, N-((3-methoxyphenyl)(phenyl)methyl)-2-oxo-6-(trifluoromethyl)-1,2-dihydropyridine-3-carboxamide] the IC50 was 4.7 µM.
